The values below come from patent US10842756B2 (BIOVIIIX S.R.L., priority 2015, dated 2020).

Molecules are shown by their SMILES.

Series [1] can be described thus: Release kinetics of the drug by micro-dialysis (QuixSep) into PBS pH 7.4. It is filed as physicochemical. The following applies: 5FU solution in PBS at 200 μg/ml; up to 60 minutes; ambient temperature.
Procedure: In particular, as a receiving step a PBS (phosphate buffered saline) at pH=7.4 was analysed. The method used is micro-dialysis by means of a system known as QuixSep® with a Spectra/pore membrane, MWCO=3500 Da.
The system was maintained under constant magnetic stirring, at ambient temperature, taking samples of the receiving step at predetermined times and re-integrating the collected volume.
The samples were analysed and the values obtained were plotted considering the single collections and re-integrations from the preceding step, so as to obtain a dissolution/release profile.
The data relating to the release percentage were calculated on the basis of a drug loading determined by LC-MS/MS analysis.
The conditions of series [2]: bolus of 600 mg of 5FU, cited from earlier work.

Take `O=c1[nH]cc(F)c(=O)[nH]1` [Batch 5FU, 5-fluorouracil]: the “dissolution of the free drug” value in series [1] worked out at 70%. In series [2] (after 25 minutes), the “plasmatic concentration of 5FU” value is 10 µg/mL. In series [2] (body surface of 1.7), the Cmax entry is on record as “about 50 μg/ml”.
